{"source": "patent US11235001B2", "about": "“RUNX inhibitor” (KYOTO UNIVERSITY, priority 2016, dated 2022)", "key": {"SU-Ph2 cells": {"test_system": "SU-Ph2 cells", "experiment": "Cell growth inhibition assay, SU-Ph2 cells", "assay_type": "cell-based, human", "conditions": "SU-Ph2, 48 hours"}, "[1]": {"test_system": "HUVEC (human umbilical vein endothelial cell line)", "experiment": "Proliferation of HUVEC", "assay_type": "cell-based"}, "IL3, CSF2 and CSF2RB": {"test_system": "IL3, CSF2 and CSF2RB", "experiment": "qRT-PCR of RUNX1 target genes in MV4-11 cells", "assay_type": "cell-based, human", "conditions": "5 μM, 6 hours"}, "[2]": {"test_system": "RUNX family (RUNX1, RUNX2 and RUNX3)", "experiment": "Gene expression microarray in MV4-11 cells vs RUNX family knockdown", "assay_type": "cell-based, human", "conditions": "1 μM, 6 hours, top 500 up- and down-regulated genes"}, "[3]": {"experiment": "Acute toxicological testing in NOG mice", "assay_type": "in vivo, mouse", "description": "To check the pharmacological safety of the PI polyamide conjugates in vivo, acute toxicological testing of Chb-M′ in mice was first performed. NOD/Shi-scid,IL-2RγKO (NOG) mice were injected with Chb-M′ at various concentrations. Complete blood cell counts, blood biochemistry and body weight were measured (n=5)."}, "A549 cells": {"test_system": "A549 cells", "experiment": "Xenograft lung cancer mouse model (A549)", "assay_type": "in vivo"}, "MYL cells": {"test_system": "MYL cells", "experiment": "PI-AnnexinV apoptosis staining, MYL cells", "assay_type": "cell-based, human", "conditions": "1.5 μM or 3 μM, 48 hours, dependent on concentration", "description": "In addition, 1.5 μM or 3 μM of Chb-M′ was administered to MYL cells. After 48 hours, the percentage of apoptosis was analyzed by PI-AnnexinV apoptosis staining. As a result, early apoptosis rates were increased dependent on the concentration of Chb-M′ (FIG. 26-4)."}, "[4]": {"test_system": "E-selectin, P-selectin, Tie2, ICAM-1, VCAM-1, Jagged-1", "experiment": "qRT-PCR of adhesion molecule genes in HUVEC", "assay_type": "cell-based, human", "conditions": "0.5 μM, 1 μM, or 5 μM, 6 hours"}, "[5]": {"test_system": "Her2, p-Her2, SOS1, p-ERK, ERK, p-AKT, AKT", "experiment": "Western blotting of Her2 signalling in MKN45 gastric cancer cells", "assay_type": "cell-based, human", "conditions": "48 hours"}, "RERF-LC-MS": {"test_system": "RERF-LC-MS", "experiment": "Cell viability, lung adenocarcinoma RERF-LC-MS", "assay_type": "cell-based, human", "conditions": "RERF-LC-MS (EGFR wild-type p53-mutated), 48 hours"}, "p53, p21, PUMA, and BAX": {"test_system": "p53, p21, PUMA, and BAX", "experiment": "Western blotting of apoptosis-related factors in lung adenocarcinoma cells", "assay_type": "cell-based, human", "conditions": "A549 cells and LU99A cells, 1 μM, 24 hours", "description": "Cells were washed twice with ice cold phosphate-buffered saline (PBS) and harvested in protein lysis buffer [50 mM Tris (pH 7.4), 100 mM NaCl, 0.1 mM EDTA, 1 mM phenylmethylsulfonyl fluoride, 1 mM β-glycerophosphate, 2.5 mM sodium pyrophosphate, 1 mM Na3VO4, lx protease inhibitor (Roche) and PhosSTOP (Roche)]. Whole cell extracts were separated by SDS-polyacrylamide gel electrophoresis (SDS-PAGE) and electrotransferred onto polyvinylidene difluoride membranes. […] Blots were detected using Chemi-Lumi One Super (nacalai tesque, Inc.) and ChemiDoc™ XRS+ Imager (Bio-Rad Laboratories, Inc.), as recommended by the manufacturers. Protein levels were quantified with Image Lab Software (Bio-Rad Laboratories, Inc.).\nTo A549 cells and LU99A cells, 1 μM Chb-M′ was administered. After 24 hours, the expression levels of apoptosis-related factors (p53, p21, PUMA, and BAX) were evaluated by the Western blotting method (see the above-described “Immunoblotting”). […]"}, "HL60": {"test_system": "HL60", "conditions": "HL60, p53null; for IC50: 48 hours"}, "PC-3 cells": {"test_system": "PC-3 cells", "conditions": "read-out: IC50 (μM) in PC-3 cells; PC-3 (p53null/PTEN del/androgen-independent), 48 hours"}, "LNCaP cells": {"test_system": "LNCaP cells", "conditions": "read-out: IC50 (μM) in LNCaP cells; LNCaP (androgen-dependent), 48 hours"}, "SU/SR cells": {"test_system": "SU/SR cells", "conditions": "read-out: IC50 value; SU/SR (imatinib-resistant), 48 hours"}}, "note": "Where two headings read alike, the source gives them in different places.", "data": [{"compound": "CN(C)CCCNC(=O)c1cc(NC(=O)c2cc(NC(=O)c3cc(NC(=O)c4cc(NC(=O)CCCNC(=O)c5nc(NC(=O)c6nc(NC(=O)c7cc(NC(=O)c8nc(NC(=O)CCNC(=O)CCCc9ccc(N(CCCl)CCCl)cc9)cn8C)cn7C)cn6C)cn5C)cn4C)cn3C)cn2C)cn1C", "note": "[Chb-M′]", "values": [{"measurement": "IC50 compared with that of imatinib", "setting": "SU-Ph2 cells", "value": "lower IC50 values"}, {"measurement": "IC50", "setting": "[1]", "value": "≥ 50", "unit": "µM"}, {"measurement": "Expressions of RUNX1 target genes (IL3, CSF2, and CSF2RB), mRNA", "setting": "IL3, CSF2 and CSF2RB", "value": "effectively inhibited"}, {"measurement": "Gene expression pattern vs cells with all RUNX family members knockdown", "setting": "[2]", "value": "significantly correlated"}, {"measurement": "10 mg/kg dose relative to the amount necessary to gain medicinal effect", "setting": "[3]", "value": "more than thirty times higher"}, {"measurement": "Tolerability in vivo", "setting": "[3]", "value": "highly tolerable"}, {"measurement": "Platelets counts", "setting": "[3]; 10 mg/kg body weight injection", "value": "slight decrease"}, {"measurement": "Effect on the lung cancer model", "setting": "A549 cells; A549 xenograft", "value": "inhibited the growth"}, {"measurement": "H&E staining of lung tissue (lung cancer cells in pulmonary alveoli)", "setting": "A549 cells; day 14 after transplantation", "value": "rather diminished"}, {"measurement": "Brightness of luciferase (IVIS), lung", "setting": "A549 cells; day 14 after transplantation, after 2 administrations", "value": "rather weakened"}, {"measurement": "Bioluminescence signal intensity vs DMSO or gefitinib", "setting": "A549 cells; day 21 after transplantation", "value": "far lower"}, {"measurement": "Brightness of luciferase (IVIS), lung", "setting": "A549 cells; day 21 after transplantation, after total 4 administrations", "value": "further weakened"}, {"measurement": "Lengthening of overall survival periods", "setting": "A549 cells; mice with gefitinib-resistant A549, 320 μg/kg IV twice a week from day 7", "value": "about 2 times"}, {"measurement": "Early apoptosis rates", "setting": "MYL cells", "value": "increased"}, {"measurement": "E-selectin, P-selectin, and VCAM-1 mRNA levels", "setting": "[4]", "value": "markedly suppressed"}, {"measurement": "Expression of SOS1 (protein)", "setting": "[5]; MKN45, 0.1 μM, 1 μM, or 10 μM", "value": "suppressed"}, {"measurement": "Phosphorylation of Her2", "setting": "[5]; MKN45, 0.1 μM, 1 μM, or 10 μM", "value": "suppressed"}, {"measurement": "Expression of Her2 protein", "setting": "[5]; MKN45, 1 μM", "value": "suppressed"}, {"measurement": "Phosphorylated forms of ERK protein and AKT protein", "setting": "[5]; MKN45, 1 μM", "value": "suppressed"}, {"measurement": "Total amounts of ERK protein and AKT protein", "setting": "[5]; MKN45, 1 μM", "value": "not changed"}, {"measurement": "IC50 compared with the EGFR inhibitor (gefitinib)", "setting": "RERF-LC-MS", "value": "lower IC50 values"}, {"measurement": "p53 and p21 and apoptotic factors PUMA and BAX (protein)", "setting": "p53, p21, PUMA, and BAX", "value": "enhanced"}, {"measurement": "CI (Fa = 0.5)", "setting": "KG1a; p53null, concomitant use of Chb-M′ and PRIMA-1, Chou-Talalay, CI<1 synergism", "value": 2.01}, {"measurement": "IC50", "setting": "KG1a; read-out: IC50 (μM) of Chb-M′ in concomitant use with PRIMA-1 (5 μM), p53null, 48 hours, with 5 μM PRIMA-1", "value": "> 100", "unit": "µM"}, {"measurement": "IC50", "setting": "KG1a; read-out: IC50 (μM) of Chb-M′ single agent administration, p53null, 48 hours", "value": "> 100", "unit": "µM"}, {"measurement": "CI (Fa = 0.5)", "setting": "HL60; concomitant use of Chb-M′ and PRIMA-1, Chou-Talalay, CI<1 synergism", "value": 1.10}, {"measurement": "IC50", "setting": "HL60; read-out: IC50 (μM) of Chb-M′ in concomitant use with PRIMA-1 (5 μM), with 5 μM PRIMA-1", "value": 11.7, "unit": "µM"}, {"measurement": "IC50", "setting": "HL60; read-out: IC50 (μM) of Chb-M′ single agent administration", "value": 11.4, "unit": "µM"}, {"measurement": "CI (Fa = 0.5)", "setting": "MV4-11NR; p53mut(+), concomitant use of Chb-M′ and PRIMA-1, Chou-Talalay, CI<1 synergism", "value": 0.380}, {"measurement": "IC50", "setting": "MV4-11NR; read-out: IC50 (μM) of Chb-M′ in concomitant use with PRIMA-1 (5 μM), p53mut(+), 48 hours, with 5 μM PRIMA-1", "value": 0.00103, "unit": "µM"}, {"measurement": "IC50", "setting": "MV4-11NR; read-out: IC50 (μM) of Chb-M′ single agent administration, p53mut(+), 48 hours", "value": "> 100", "unit": "µM"}, {"measurement": "IC50", "setting": "PC-3 cells", "value": 0.62, "unit": "µM"}, {"measurement": "IC50", "setting": "LNCaP cells", "value": 0.68, "unit": "µM"}, {"measurement": "IC50", "setting": "SU/SR cells", "value": 0.044, "unit": "µM"}]}]}
